According to patent US10087192B2, “2-(het)aryl-substituted fused bicyclic heterocycle derivatives as pesticides” (BAYER CROPSCIENCE AKTIENGESELLSCHSAFT, priority 2015, dated 2018):

How the values were obtained:
Format in all cases: in vivo
Phaedon cochleariae = Phaedon cochleariae spray test; conditions: after 7 days, larvae on Chinese cabbage leaf discs
Procedure: Phaedon cochleariae—Spray Test
Solvent: 78.0 parts by weight of acetone • • 1.5 parts by weight of dimethylformamide
Emulsifier: alkylaryl polyglycol ether
To produce a suitable preparation of active compound, 1 part by weight of active compound is dissolved using the stated parts by weight of solvent and made up with water containing an emulsifier concentration of 1000 ppm until the desired concentration is attained. To produce further test concentrations, the preparation is diluted with emulsifier-containing water.
After 7 days, the efficacy in % is determined. 100% means that all the beetle larvae have been killed; 0% means that no beetle larvae have been killed.

Myzus persicae = Myzus persicae spray test (Chinese cabbage leaf discs); conditions: after 6 days
Procedure: Myzus persicae—Spray Test Solvent: 78 parts by weight of acetone • • 1.5 parts by weight of dimethylformamide Emulsifier: alkylaryl polyglycol ether […] To produce further test concentrations, the preparation is diluted with emulsifier-containing water. Discs of Chinese cabbage leaves (Brassica pekinensis) infested by all stages of the green peach aphid (Myzus persicae) are sprayed with an active compound preparation of the desired concentration.

Lucilia cuprina = Lucilia cuprina test; conditions: 100 ppm, after 2 days, L1 larvae
Procedure: (§1) Solvent: dimethyl sulphoxide
To produce a suitable preparation of active compound, 10 mg of active compound are mixed with 0.5 ml of dimethyl sulphoxide, and the concentrate is diluted with water to the desired concentration.
About 20 L1 larvae of the Australian sheep blowfly (Lucilia cuprina) are transferred into a test vessel containing minced horsemeat and the active compound preparation of the desired concentration.
After 2 days, the kill in % is determined. 100% means that all the larvae have been killed; 0% means that no larvae have been killed.

Ctenocephalides felis = Ctenocephalides felis oral test; conditions: 100 ppm in citrated cattle blood, after 2 days
Excerpt: Ctenocephalides felis—Oral Test Solvent: dimethyl sulphoxide […] Dilution with citrated cattle blood gives the desired concentration. About 20 unfed adult cat fleas (Ctenocephalides felis) are placed into a chamber which is closed at the top and bottom with gauze. A metal cylinder whose bottom end is closed with parafilm is placed onto the chamber. The cylinder contains the blood/active compound preparation, which can be imbibed by the fleas through the parafilm membrane.

Spodoptera frugiperda = Spodoptera frugiperda spray test (maize leaf discs); conditions: after 7 days, caterpillars on maize leaf discs
Procedure: Spodoptera frugiperda—Spray Test Solvent: 78.0 parts by weight of acetone • • 1.5 parts by weight of dimethylformamide Emulsifier: alkylaryl polyglycol ether […] To produce further test concentrations, the preparation is diluted with emulsifier-containing water. Leaf discs of maize (Zea mays) are sprayed with an active compound preparation of the desired concentration and, after drying, populated with caterpillars of the armyworm (Spodoptera frugiperda).

Boophilus microplus = Boophilus microplus injection test; conditions: 20 μg/animal, assessed after 7 days
Procedure: Boophilus microplus—Injection Test
as §1
To produce a suitable preparation of active compound, 10 mg of active compound are mixed with 0.5 ml of solvent and the concentrate is diluted with solvent to the desired concentration.
1 μl of the active compound solution is injected into the abdomen of 5 engorged adult female cattle ticks (Boophilus microplus). The animals are transferred into dishes and kept in a climate-controlled room.
Efficacy is assessed after 7 days by laying of fertile eggs. Eggs which are not visibly fertile are stored in a climate-controlled cabinet until the larvae hatch after about 42 days. An efficacy of 100% means that none of the ticks has laid any fertile eggs; 0% means that all the eggs are fertile.

## CCS(=O)(=O)c1ccc(-n2ccc(SC(F)(F)F)c2)nc1-c1nc2cc(C(F)(F)F)ncc2n1C [Example 2]
Phaedon cochleariae; 500 g/ha
  efficacy: 100%
Myzus persicae; 500 g/ha
  efficacy: 90%
Lucilia cuprina
  efficacy (kill): 100%
Ctenocephalides felis
  efficacy (kill): 100%

## CCS(=O)(=O)c1ccc(-n2cc(S(C)(=O)=O)cn2)nc1-c1nc2cc(C(F)(F)F)ncc2n1C [Example 3]
Phaedon cochleariae; 500 g/ha
  efficacy: 100%
Myzus persicae; 500 g/ha
  efficacy: 90%
Lucilia cuprina
  efficacy (kill): 100%
Ctenocephalides felis
  efficacy (kill): 100%

## CCS(=O)(=O)c1ccc(-n2cc(C(=O)NC)cn2)nc1-c1nc2cc(C(F)(F)F)ncc2n1C [Example 4]
Phaedon cochleariae; 500 g/ha
  efficacy: 100%
Myzus persicae; 500 g/ha
  efficacy: 90%
Lucilia cuprina
  efficacy (kill): 100%
Ctenocephalides felis
  efficacy (kill): 100%

## CCS(=O)(=O)c1ccc(-n2cc(Cl)cn2)nc1-c1nc2cc(C(F)(F)F)ncc2n1C [Example 6]
Spodoptera frugiperda; 100 g/ha
  efficacy: 100%
Ctenocephalides felis
  efficacy (kill): 95%

## CCS(=O)(=O)c1ccc(-n2ccc(Cl)n2)nc1-c1nc2cc(C(F)(F)F)ncc2n1C [Example 9]
Phaedon cochleariae; 500 g/ha
  efficacy: 100%
Spodoptera frugiperda; 100 g/ha
  efficacy: 83%

## CCS(=O)(=O)c1ccc(-n2ccc(COC)n2)nc1-c1nc2cc(C(F)(F)F)ncc2n1C [Example 10]
Myzus persicae; 500 g/ha
  efficacy: 90%
Lucilia cuprina
  efficacy (kill): 100%

## CCS(=O)(=O)c1ccc(-n2ccc(C(=O)NC)n2)nc1-c1nc2cc(C(F)(F)F)ncc2n1C [Example 12]
Myzus persicae; 500 g/ha
  efficacy: 90%

## CCS(=O)(=O)c1ccc(-n2cnc(SC)n2)nc1-c1nc2cc(C(F)(F)F)ncc2n1C [Example 15]
Phaedon cochleariae; 500 g/ha
  efficacy: 100%
Spodoptera frugiperda; 500 g/ha
  efficacy: 83%
Myzus persicae; 500 g/ha
  efficacy: 90%

## CCS(=O)(=O)c1ccc(-n2cc(SC)cn2)nc1-c1nc2cc(C(F)(F)F)ncc2n1C [Example 16]
Phaedon cochleariae; 500 g/ha
  efficacy: 100%
Spodoptera frugiperda; 500 g/ha
  efficacy: 100%
Myzus persicae; 500 g/ha
  efficacy: 100%

## CCS(=O)(=O)c1ccc(-n2cccn2)nc1-c1nc2cc(C(F)(F)F)ncc2n1C [Example 21]
Phaedon cochleariae; 20 g/ha
  efficacy: 83%
Spodoptera frugiperda; 100 g/ha
  efficacy: 100%

## CCS(=O)(=O)c1ccc(-n2ccc(NC(C)=O)n2)nc1-c1nc2cc(C(F)(F)F)ncc2n1C [Example 23]
Phaedon cochleariae; 500 g/ha
  efficacy: 100%
Myzus persicae; 500 g/ha
  efficacy: 90%
Lucilia cuprina
  efficacy (kill): 100%

## CCS(=O)(=O)c1ccc(-n2ccc(C(F)(F)F)n2)nc1-c1nc2cc(C(F)(F)F)ncc2n1C [Example 25]
Phaedon cochleariae; 500 g/ha
  efficacy: 100%
Spodoptera frugiperda; 500 g/ha
  efficacy: 100%
Boophilus microplus
  efficacy (laying of fertile eggs): 80%
Lucilia cuprina
  efficacy (kill): 100%
Ctenocephalides felis
  efficacy (kill): 100%

## CCS(=O)(=O)c1ccc(-n2cnc(C(F)(F)F)c2)nc1-c1nc2cc(C(F)(F)F)ncc2n1C [Example 27]
Phaedon cochleariae; 500 g/ha
  efficacy: 100%
Ctenocephalides felis
  efficacy (kill): 95%

## CCS(=O)(=O)c1ccc(-n2cc(F)cn2)nc1-c1nc2cc(C(F)(F)F)ncc2n1C [Example 28]
Phaedon cochleariae; 100 g/ha
  efficacy: 100%
Spodoptera frugiperda; 100 g/ha
  efficacy: 100%
Lucilia cuprina
  efficacy (kill): 100%
Ctenocephalides felis
  efficacy (kill): 98%

## CCS(=O)(=O)c1ccc(-n2ccc(SC)n2)nc1-c1nc2cc(C(F)(F)F)ncc2n1C [Example 29]
Phaedon cochleariae; 500 g/ha
  efficacy: 100%
Myzus persicae; 500 g/ha
  efficacy: 90%

## CCS(=O)(=O)c1ccc(-n2ncc(C(F)(F)F)n2)nc1-c1nc2cc(C(F)(F)F)ncc2n1C [Example 30]
Phaedon cochleariae; 500 g/ha
  efficacy: 100%
Spodoptera frugiperda; 500 g/ha
  efficacy: 100%
Myzus persicae; 500 g/ha
  efficacy: 90%
Boophilus microplus
  efficacy (laying of fertile eggs): 95%
Lucilia cuprina
  efficacy (kill): 100%

## CCS(=O)(=O)c1ccc(-n2ccc(S(C)(=O)=O)n2)nc1-c1nc2cc(C(F)(F)F)ncc2n1C [Example 35]
Phaedon cochleariae; 500 g/ha
  efficacy: 100%
Myzus persicae; 500 g/ha
  efficacy: 90%
Lucilia cuprina
  efficacy (kill): 100%
Ctenocephalides felis
  efficacy (kill): 100%

## CCS(=O)(=O)c1ccc(-n2cc(CSC)cn2)nc1-c1nc2cc(C(F)(F)F)ncc2n1C [Example 38]
Phaedon cochleariae; 500 g/ha
  efficacy: 100%

## CCS(=O)(=O)c1ccc(-n2ccn(C)c2=O)nc1-c1nc2cc(C(F)(F)F)ncc2n1C [Example 39]
Phaedon cochleariae; 500 g/ha
  efficacy: 100%
Myzus persicae; 20 g/ha
  efficacy: 90%

## CCS(=O)(=O)c1ccc(N2CCSC2=O)nc1-c1nc2cc(C(F)(F)F)ncc2n1C [Example 42]
Phaedon cochleariae; 500 g/ha
  efficacy: 100%
Myzus persicae; 500 g/ha
  efficacy: 90%

## CCS(=O)(=O)c1ccc(-n2nnn(C)c2=O)nc1-c1nc2cc(C(F)(F)F)ncc2n1C [Example 46]
Phaedon cochleariae; 500 g/ha
  efficacy: 100%
Spodoptera frugiperda; 500 g/ha
  efficacy: 100%

## CCS(=O)(=O)c1ccc(-n2ccc(CSC)n2)nc1-c1nc2cc(C(F)(F)F)ncc2n1C [Example 47]
Phaedon cochleariae; 500 g/ha
  efficacy: 100%

## CCS(=O)(=O)c1ccc(-n2nc(C)[nH]c2=O)nc1-c1nc2cc(C(F)(F)F)ncc2n1C [Example 48]
Phaedon cochleariae; 500 g/ha
  efficacy: 83%
Spodoptera frugiperda; 500 g/ha
  efficacy: 100%

## CCS(=O)(=O)c1ccc(N2CCSC2)nc1-c1nc2cc(C(F)(F)F)ncc2n1C [Example 50]
Phaedon cochleariae; 500 g/ha
  efficacy: 100%
Myzus persicae; 500 g/ha
  efficacy: 100%

## CCS(=O)(=O)c1ccc(-n2nnn(CC(F)(F)F)c2=O)nc1-c1nc2cc(C(F)(F)F)ncc2n1C [Example 52]
Phaedon cochleariae; 500 g/ha
  efficacy: 100%
Myzus persicae; 500 g/ha
  efficacy: 90%

## CCS(=O)(=O)c1ccc(-n2ccc(C3CC3)n2)nc1-c1nc2cc(C(F)(F)F)ncc2n1C [Example 53]
Phaedon cochleariae; 500 g/ha
  efficacy: 100%
Spodoptera frugiperda; 500 g/ha
  efficacy: 100%
Myzus persicae; 500 g/ha
  efficacy: 90%
Lucilia cuprina
  efficacy (kill): 100%
Ctenocephalides felis
  efficacy (kill): 100%

## CCS(=O)(=O)c1ccc(-n2nnc(C(F)(F)F)n2)nc1-c1nc2cc(C(F)(F)F)ncc2n1C [Example 55]
Phaedon cochleariae; 500 g/ha
  efficacy: 100%
Spodoptera frugiperda; 500 g/ha
  efficacy: 100%
Myzus persicae; 500 g/ha
  efficacy: 90%

## CCS(=O)(=O)c1ccc(-n2nnn(CC(F)(F)C(F)(F)F)c2=O)nc1-c1nc2cc(C(F)(F)F)ncc2n1C [Example 56]
Phaedon cochleariae; 500 g/ha
  efficacy: 100%
Spodoptera frugiperda; 500 g/ha
  efficacy: 100%
Myzus persicae; 500 g/ha
  efficacy: 100%

## CCS(=O)(=O)c1ccc(-n2c(SC)nn(C)c2=O)nc1-c1nc2cc(C(F)(F)F)ncc2n1C [Example 58]
Phaedon cochleariae; 500 g/ha
  efficacy: 83%

## CCS(=O)(=O)c1ccc(-n2cc(CS(C)(=O)=O)cn2)nc1-c1nc2cc(C(F)(F)F)ncc2n1C [Example 60]
Phaedon cochleariae; 500 g/ha
  efficacy: 100%
Lucilia cuprina
  efficacy (kill): 95%
Ctenocephalides felis
  efficacy (kill): 100%

## CCS(=O)(=O)c1ccc(-c2ccccn2)nc1-c1nc2cc(C(F)(F)F)ncc2n1C [Example 71]
Phaedon cochleariae; 500 g/ha
  efficacy: 100%
Spodoptera frugiperda; 500 g/ha
  efficacy: 100%

## CCS(=O)(=O)c1ccc(-c2cccnc2)nc1-c1nc2cc(C(F)(F)F)ncc2n1C [Example 72]
Phaedon cochleariae; 100 g/ha
  efficacy: 83%
Myzus persicae; 500 g/ha
  efficacy: 90%

## CCS(=O)(=O)c1ccc(-c2cc[nH]c2)nc1-c1nc2cc(C(F)(F)F)ncc2n1C [Example 73]
Phaedon cochleariae; 500 g/ha
  efficacy: 100%
Myzus persicae; 500 g/ha
  efficacy: 90%

## CCS(=O)(=O)c1ccc(-c2ccn[nH]2)nc1-c1nc2cc(C(F)(F)F)ncc2n1C [Example 75]
Phaedon cochleariae; 500 g/ha
  efficacy: 100%
Spodoptera frugiperda; 500 g/ha
  efficacy: 100%

## CCS(=O)(=O)c1ccc(-c2cc(Cl)cs2)nc1-c1nc2cc(C(F)(F)F)ncc2n1C [Example 77]
Spodoptera frugiperda; 500 g/ha
  efficacy: 100%

## CCS(=O)(=O)c1ccc(-c2cnn(C)c2)nc1-c1nc2cc(C(F)(F)F)ncc2n1C [Example 83]
Phaedon cochleariae; 500 g/ha
  efficacy: 100%
Spodoptera frugiperda; 500 g/ha
  efficacy: 100%
Myzus persicae; 500 g/ha
  efficacy: 90%

## CCS(=O)(=O)c1ccc(-c2cn[nH]c2)nc1-c1nc2cc(C(F)(F)F)ncc2n1C [Example 84]
Phaedon cochleariae; 500 g/ha
  efficacy: 83%
Spodoptera frugiperda; 500 g/ha
  efficacy: 100%

## CCS(=O)(=O)c1ccc(-c2sccc2Cl)nc1-c1nc2cc(C(F)(F)F)ncc2n1C [Example 85]
Spodoptera frugiperda; 500 g/ha
  efficacy: 100%
